The record followed here is US11926628B2 (Gilead Sciences, Inc., priority 2021, dated 2024).

For one assay, the target named is human DGKα (Homo sapiens (Human), UniProt P23743). Nature of the assay: DGKα Biochemical Activity Assay (ADP-Glo). Particulars: recombinant DGKα 1 nM, 100 μM ATP, 18:1 DAG/POPS/octylglucoside micelles, 1 hour at 25° C.; geometric mean; read-out: HTBS DGKa 1X ATP KM IC50. A digest of the protocol: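 Recombinant DGKα (1 nM final) was preincubated with compound for 15 min, then reacted for 1 h at 25 °C with 100 μM ATP and octylglucoside micelles of 0.85 mM 18:1 DAG and 6.75 mM POPS in pH 7.2 MOPS with 5 mM MgCl2. ADP formed was read by ADP-Glo luminescence. IC50 came from four-parameter fits normalized to DMSO and 50 μM CU3, and values were geometric means.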
Background: ADP-Glo first removes unused ATP, then detects ADP through luciferase.

Assay [1] concerns Jurkat NFκB-luciferase cells. Nature of the assay: Jurkat NFκB-Luciferase Assay. In kind it is cell-based. The following applies: Homo sapiens; Jurkat NFκB-luciferase cells activated with anti-CD3 antibody (OKT3), 2.5 hrs at 37° C.; geometric mean; read-out: DGK NFKb Luciferase EC50. A digest of the protocol: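 Jurkat NFκB-luciferase reporter cells stimulated on plate-bound anti-CD3 (5 ug/ml coating) with compound, 2.5 hrs at 37° C then 30 min at 25° C; luminescence read with One-Glo Ex. Normalized to DMSO (basal) and 1 micromolar compound (maximum) controls; EC50 from four-parameter fit, geometric mean across experiments.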

human DGKα, sequence (P23743 whole entry): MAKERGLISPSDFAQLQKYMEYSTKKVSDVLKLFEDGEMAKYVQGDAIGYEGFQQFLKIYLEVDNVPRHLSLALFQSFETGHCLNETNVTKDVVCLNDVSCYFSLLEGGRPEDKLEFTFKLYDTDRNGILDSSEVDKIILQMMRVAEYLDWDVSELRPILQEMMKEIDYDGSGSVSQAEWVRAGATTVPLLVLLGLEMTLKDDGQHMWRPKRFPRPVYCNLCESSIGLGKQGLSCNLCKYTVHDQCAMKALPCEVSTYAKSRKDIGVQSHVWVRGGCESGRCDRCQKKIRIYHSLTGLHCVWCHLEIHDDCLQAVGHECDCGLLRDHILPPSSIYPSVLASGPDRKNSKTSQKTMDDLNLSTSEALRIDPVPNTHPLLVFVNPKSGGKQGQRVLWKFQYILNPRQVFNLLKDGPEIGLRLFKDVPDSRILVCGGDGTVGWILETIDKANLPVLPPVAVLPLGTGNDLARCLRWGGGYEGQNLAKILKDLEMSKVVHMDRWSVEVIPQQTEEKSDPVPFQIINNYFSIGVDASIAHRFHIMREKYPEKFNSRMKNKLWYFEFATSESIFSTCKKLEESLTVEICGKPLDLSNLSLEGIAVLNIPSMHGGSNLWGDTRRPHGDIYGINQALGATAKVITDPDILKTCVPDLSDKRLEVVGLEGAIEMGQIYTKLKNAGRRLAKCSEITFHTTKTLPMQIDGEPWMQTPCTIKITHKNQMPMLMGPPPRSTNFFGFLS

One may read the IC50 as the concentration at which inhibition is half-maximal. Broadly, the EC50 is the concentration giving half of the maximal effect. In the case of `CN(c1cccc(-c2ccc(C3CC3)cc2)c1)c1nc2nncn2c2nc(N)ccc12` [Example 127, N5-(4′-cyclopropyl-[1,1′-biphenyl]-3-yl)-N5-methylpyrido[3,2-e][1,2,4]triazolo[4,3-a]pyrimidine-2,5-diamine], at human DGKα, the half-maximal inhibitory concentration (IC50) worked out at 7.25 nM. In assay [1], the 50% effective concentration (EC50) is 1.43 nM.
For `COc1ccc2c(N(C)c3cccc(C#CC(C)(C)C)c3)nc3nncn3c2n1` [Example 128, N-(3-(3,3-dimethylbut-1-yn-1-yl)phenyl)-2-methoxy-N-methylpyrido[3,2-e][1,2,4]triazolo[4,3-a]pyrimidin-5-amine], the IC50 at human DGKα came to 102 nM. The concentration for a half-maximal effect (EC50) in assay [1] stood at 3.46 nM.
For the compound `COc1ccc2c(N(C)c3cccc(-c4ccc(C5CC5)cc4)c3)nc3nncn3c2n1` [Example 129, N-(4′-cyclopropyl-[1,1′-biphenyl]-3-yl)-2-methoxy-N-methylpyrido[3,2-e][1,2,4]triazolo[4,3-a]pyrimidin-5-amine], the 50% inhibitory concentration (IC50) at human DGKα turned out to be 28.9 nM. Further, in assay [1], the 50% effective concentration (EC50) amounted to 0.754 nM.
Taken in the same sequence, the figures for `COc1ccc2c(N(C)c3cccc(-c4ccc(C(F)F)cc4)c3)nc3nncn3c2n1` [Example 130, N-(4′-(difluoromethyl)-[1,1′-biphenyl]-3-yl)-2-methoxy-N-methylpyrido[3,2-e][1,2,4]triazolo[4,3-a]pyrimidin-5-amine] were 55 nM and 2.52 nM.
With `CN(c1cccc(-c2ccc(C(F)F)cc2)c1)c1nc2nncn2c2nc(N)ccc12` [Example 131, N5-(4′-(difluoromethyl)-[1,1′-biphenyl]-3-yl)-N5-methylpyrido[3,2-e][1,2,4]triazolo[4,3-a]pyrimidine-2,5-diamine], the 50% inhibitory concentration (IC50) on human DGKα stood at 11.5 nM. Further, the EC50 in assay [1] is 7.69 nM.
`CN(c1cccc(Cl)c1)c1nc2nncn2c2nc(N)ccc12` [Example 132, N5-(3-chlorophenyl)-N5-methylpyrido[3,2-e][1,2,4]triazolo[4,3-a]pyrimidine-2,5-diamine]: the IC50 on human DGKα was found to be 388 nM. For the same compound, in assay [1], the EC50 came to 91.4 nM.
Regarding `COc1ccc2c(N(C)c3cccc(-c4ccc(C(F)F)cc4)c3)nc3nnc(C)n3c2n1` [Example 133, N-(4′-(difluoromethyl)-[1,1′-biphenyl]-3-yl)-2-methoxy-N,9-dimethylpyrido[3,2-e][1,2,4]triazolo[4,3-a]pyrimidin-5-amine], on human DGKα, the 50% inhibitory concentration (IC50) is 52.8 nM. Moreover, the EC50 in assay [1] is 1.98 nM.
For `Cc1nnc2nc(N(C)c3cccc(-c4ccc(C(F)F)cc4)c3)c3ccc(N)nc3n12` [Example 134, N5-(4′-(difluoromethyl)-[1,1′-biphenyl]-3-yl)-N5,9-dimethylpyrido[3,2-e][1,2,4]triazolo[4,3-a]pyrimidine-2,5-diamine] the same measures were 12.3 nM and 8.3 nM.
`Cc1nnc2nc(N3CCCc4c(C#Cc5cnn(C)c5)cccc43)c3cc(F)cnc3n12` [Example 135]: the IC50 at human DGKα was 4.03 nM. Besides, in assay [1], the EC50 was determined as 3.1 nM.
Taken in the same sequence, the figures for `Cc1nnc2nc(N3CCOCc4c(C#CC(C)(C)C#N)cccc43)c3cc(F)cnc3n12` [Example 136] were 3.35 nM and 10.4 nM.
`Cc1nnc2nc(N3CCOCc4c(C#Cc5cnn(C)c5)cccc43)c3ccc(C(F)(F)F)nc3n12` [Example 137, 6-((1-methyl-1H-pyrazol-4-yl)ethynyl)-1-(9-methyl-2-(trifluoromethyl)pyrido[3,2-e][1,2,4]triazolo[4,3-a]pyrimidin-5-yl)-1,2,3,5-tetrahydrobenzo[e][1,4]oxazepane]: the IC50 on human DGKα worked out at 8.38 nM. Further, the 50% effective concentration (EC50) in assay [1] turned out to be 5.67 nM.
Take `Cc1nnc2nc(N3CCOCc4c(C#CC(C)(C)C#N)cccc43)c3ccc(C(F)(F)F)nc3n12` [Example 138, 2,2-dimethyl-4-(1-(9-methyl-2 (trifluoromethyl)pyrido[3,2-e][1,2,4]triazolo[4,3-a]pyrimidin-5-yl)-1,2,3,5-tetrahydrobenzo[e][1,4]oxazepin-6-yl)but-3-ynenitrile]: on human DGKα, the IC50 amounted to 6.56 nM. In assay [1], the 50% effective concentration (EC50) was determined as 4.35 nM.
For `Cc1nnc2nc(N3CCCc4c(C#Cc5cnn(C)c5)cccc43)c3ccc(C(F)(F)F)nc3n12` [Example 139, 9-methyl-5-(5-((1-methyl-1H-pyrazol-4-yl)ethynyl)-3,4-dihydroquinolin-1(2H)-yl)-2-(trifluoromethyl)pyrido[3,2-e][1,2,4]triazolo[4,3-a]pyrimidine] the same measures were 47.8 nM and 6.04 nM.
Take `Cc1nnc2nc(N3CCOCc4c(C#CC5(C)CC5)cccc43)c3ccc(C(F)(F)F)nc3n12` [Example 140, 1-(9-methyl-2-(trifluoromethyl)pyrido[3,2-e][1,2,4]triazolo[4,3-a]pyrimidin-5-yl)-6-((1-methylcyclopropyl)ethynyl)-1,2,3,5-tetrahydrobenzo[e][1,4]oxazepine]: on human DGKα, the IC50 was determined as 11.5 nM. The EC50 in assay [1] came to 2.37 nM.
Taken in the same sequence, the figures for `Cc1nnc2nc(N3CCOCc4c(C#CC(C)(C)O)cccc43)c3ccc(C(F)(F)F)nc3n12` [Example 141, 2-methyl-4-[1-[3-methyl-12-(trifluoromethyl)-2,4,5,7,13-pentazatricyclo[7.4.0.02,6]trideca-1(13),3,5,7,9,11-hexaen-8-yl]-3,5-dihydro-2H-4,1-benzoxazepin-6-yl]but-3-yn-2-ol] were 20.1 nM and 55.8 nM.
Taken in the same sequence, the figures for `Cc1nnc2nc(N3CCCc4c(C#CC5(C(F)(F)F)CC5)cccc43)c3ccc(C(F)(F)F)nc3n12` [Example 142, 9-methyl-2-(trifluoromethyl)-5-(5-((1-(trifluoromethyl)cyclopropyl)ethynyl)-3,4-dihydroquinolin-1(2H)-yl)pyrido[3,2-e][1,2,4]triazolo[4,3-a]pyrimidine] were 712 nM and 0.464 nM.
Regarding `Cc1nnc2nc(N3CCCc4c(C#CC5(C)CC5)cccc43)c3ccc(C(F)(F)F)nc3n12` [Example 143, 9-methyl-5-(5-((1-methylcyclopropyl)ethynyl)-3,4-dihydroquinolin-1(2H)-yl)-2-(trifluoromethyl)pyrido[3,2-e][1,2,4]triazolo[4,3-a]pyrimidine], on human DGKα, the IC50 worked out at 1.38 nM. Also, the 50% effective concentration (EC50) in assay [1] is 0.051 nM.
For the compound `Cc1nnc2nc(N3CCCc4c(C#CC(C)(C)C#N)cccc43)c3cc(F)cnc3n12` [Example 144, 4-(1-(3-fluoro-9-methylpyrido[3,2-e][1,2,4]triazolo[4,3-a]pyrimidin-5-yl)-1,2,3,4-tetrahydroquinolin-5-yl)-2,2-dimethylbut-3-ynenitrile], the IC50 at human DGKα stood at 5.08 nM. For the same compound, the EC50 in assay [1] stood at 4.67 nM.
For `Cc1nnc2nc(N3CCCc4c(C#CC(C)(C)O)cccc43)c3ccc(C(F)(F)F)nc3n12` [Example 145, 2-methyl-4-(1-(9-methyl-2-(trifluoromethyl)pyrido[3,2-e][1,2,4]triazolo[4,3-a]pyrimidin-5-yl)-1,2,3,4-tetrahydroquinolin-5-yl)but-3-yn-2-ol] the same measures were 59.6 nM and 8.73 nM.
As to `CCC(O)C#Cc1cccc2c1CCCN2c1nc2nncn2c2ncc(F)cc12` (stereo not drawn) [Example 146, 1-(1-(3-fluoropyrido[3,2-e][1,2,4]triazolo[4,3-a]pyrimidin-5-yl)-1,2,3,4-tetrahydroquinolin-5-yl)pent-1-yn-3-ol], the IC50 at human DGKα turned out to be 7.78 nM. In addition, the EC50 in assay [1] was 18.1 nM.
For `CC(C)(C#N)C#Cc1cccc2c1CCCN2c1nc2nncn2c2ncc(F)cc12` [Example 147, 4-(1-(3-fluoropyrido[3,2-e][1,2,4]triazolo[4,3-a]pyrimidin-5-yl)-1,2,3,4-tetrahydroquinolin-5-yl)-2,2-dimethylbut-3-ynenitrile], the half-inhibitory concentration (IC50) at human DGKα was 4.38 nM. For the same compound, the half-maximal effective concentration (EC50) in assay [1] worked out at 4.24 nM.
With `CCC(C)(O)C#Cc1cccc2c1CCCN2c1nc2nncn2c2ncc(F)cc12` (stereo not drawn) [Example 148, 1-(1-(3-fluoropyrido[3,2-e][1,2,4]triazolo[4,3-a]pyrimidin-5-yl)-1,2,3,4-tetrahydroquinolin-5-yl)-3-methylpent-1-yn-3-ol], the IC50 at human DGKα turned out to be 13.7 nM. For the same compound, the concentration giving a half-maximal response (EC50) in assay [1] was 20.7 nM.
Consider `CC(C)(O)C#Cc1cccc2c1CCCN2c1nc2nncn2c2ncc(F)cc12` [Example 149, 4-(1-(3-fluoropyrido[3,2-e][1,2,4]triazolo[4,3-a]pyrimidin-5-yl)-1,2,3,4-tetrahydroquinolin-5-yl)-2-methylbut-3-yn-2-ol], for which, on human DGKα, the half-maximal inhibitory concentration (IC50) amounted to 8.71 nM. Moreover, in assay [1], the EC50 was found to be 12 nM.
With `Fc1cnc2c(c1)c(N1CCCc3c(C#CC4(C(F)(F)F)CC4)cccc31)nc1nncn12` [Example 150, 11-fluoro-8-[5-[2-[1-(trifluoromethyl)cyclopropyl]ethynyl]-3,4-dihydro-2H-quinolin-1-yl]-2,4,5,7,13-pentazatricyclo[7.4.0.02,6]trideca-1(13),3,5,7,9,11-hexaene], at human DGKα, the IC50 turned out to be 8.44 nM. The EC50 in assay [1] stood at 2.18 nM.
Taken in the same sequence, the figures for `CCC1(C#Cc2cccc(N(C)c3nc4nncn4c4ncc(F)cc34)c2)CC1` [Example 151, N-[3-[2-(1-ethylcyclopropyl)ethynyl]phenyl]-11-fluoro-N-methyl-2,4,5,7,13-pentazatricyclo[7.4.0.02,6]trideca-1(13),3,5,7,9,11-hexaen-8-amine] were 51.4 nM and 3.82 nM.
Taken in the same sequence, the figures for `CN(c1cccc(C#CC(C)(C)C)c1)c1nc2nncn2c2ncc(F)cc12` [Example 152] were 32 nM and 3.18 nM.
`CN(c1cccc(C#CC(C)(C)O)c1)c1nc2nncn2c2ncc(F)cc12` [Example 153]: the IC50 at human DGKα is 29.4 nM. Moreover, the EC50 in assay [1] was found to be 45.2 nM.
